# Measurements published in patent US20050208468A1, “Assays with primary cells” (priority 2003, published 2005).
# Experiments:
# HRPTE cells = assay: cytotoxicity response (death index, live/dead assay) of HRPTE cells; assay type: cell-based, human; conditions: HRPTE cells in 96-well microplate wells or on coded carriers; various concentrations; FIG. 7
# Protocol: This example describes how multiplexed analysis using coded carriers may be used to study the cytotoxicity response of HRPTE cells to staurosporine, in accordance with aspects of the present teachings; see FIG. 7.
# Specifically, HRPTE cells are grown directly attached to wells of a standard 96-well microplate, or on coded carriers that optionally may be placed in wells of the microplate. A “death index” (e.g., the fraction of observed cells that are dead) may be used as a measure of cytotoxicity. The death index may be computed using any suitable mechanism, such as a fluorescence-based “live/dead assay.” In an exemplary version of the assay, live cells are labeled green using a membrane-permeant calcein AM, which is cleaved by esterases in live cells to yield cytoplasmic green fluorescence, and dead cells are labeled red using a membrane-impermeant ethidium homodimer-1, which passes through the compromised membranes of dead cells to label nucleic acids with red fluorescence. […] This reduction may be particularly significant in assays on primary cells, because primary cells typically are difficult to obtain and maintain.
# PPARγ = PPARγ activity assay based on PEPCK expression, coded carriers in a shared fluid volume; assay type: cell-based, human; conditions: four donor samples in a shared fluid volume; four days; FIG. 12
# From the text: This differentiation may be visualized readily and scored by staining lipid droplets that accumulate in the cytoplasm of the adipocytes during and/or after their differentiation. Furthermore, this adipocyte differentiation and/or activation of PPARγ may be followed by measuring the expression levels (RNA and/or protein) of PPARγ target genes (direct or indirect targets), such as PEPCK (phosphoenolpyruvate carboxykinsae) and/or FABP4 (fatty acid binding protein 4), among others.
# Staining was via indirect immunofluorescence. Cells were counterstained with a nuclear dye (Hoechst) for data normalization, here and in other assays. […] Each sample of primary cells corresponds to pre-adipocytes isolated from visceral tissue (samples starting with the letter “V”) or isolated from subcutaneous tissue (samples starting with the letters “SC”) and were supplied by Cambrex. […] Each sample was connected to a distinct class of coded carriers (having a distinct code) to permit identification of the sample after combining the different classes of carrier and samples in a shared volume. […] Lipid accumulation and PEPCK expression were then measured with the samples still disposed in the same microplate wells. […]
# [1] = system: primary human renal proximal tubule epithelial (HRPTE) cells; assay: proliferative response (S-phase index) of primary HRPTE cells; assay type: cell-based; conditions: HRPTE cells in 96-well microplate wells or on coded carriers; various concentrations; FIG. 6
# Protocol: This example describes how multiplexed analysis using coded carriers may be used to assay the effects of camptothecin on the proliferative response of primary human renal proximal tubule epithelial (HRPTE) cells, in accordance with aspects of the present teachings; see FIG. 6.
# Specifically, HRPTE cells are grown directly in wells of a standard 96-well microplate, to three different cell densities (indicated as the stated number of cells), or on coded carriers that optionally may be placed in wells of the microplate. An “S-phase index” (e.g., the fraction of cells in the S-phase of the cell cycle) is used as a measure of cell proliferation. […] This reduction may be particularly significant in assays on primary cells, because primary cells typically are difficult to obtain and maintain.
compound,measurement,setting,value
CN[C@@H]1C[C@H]2O[C@@](C)([C@@H]1OC)n1c3ccccc3c3c4c(c5c6ccccc6n2c5c31)C(=O)NC4 [staurosporine],death index (fraction of dead cells),HRPTE cells,generally increases with increasing staurosporine concentration
"COc1ccc2c(c1)c(CC(=O)O)c(C)n2C(=O)c1ccc(Cl)cc1 [Indomethacin, indomethacin]",induction of PEPCK expression as a measure of PPARγ activity,PPARγ,relatively strong induction
CC[C@@]1(O)C(=O)OCc2c1cc1n(c2=O)Cc2cc3ccccc3nc2-1 [camptothecin],S-phase index (measure of cell proliferation),[1],S-phase index generally decreases with increasing camptothecin concentration
